The values below come from patent US11505543B2, “4-oxo-3,4-dihydroquinazoline compounds as inhibitors of human immunodeficiency virus replication” (VIIV HEALTHCARE UK (NO.5) LIMITED, priority 2018, dated 2022).

Bounds are passed on as bounds.

Data set [1] relates to recombinant NL4-3 virus (nef section replaced with Renilla luciferase gene) in MT-2 cells. Nature of the data set: HIV cell culture assay (antiviral activity, luciferase readout). Conditions: Renilla, NL43, MT-2 cells infected for 4-5 days with recombinant NL4-3 Renilla luciferase virus, serial dilutions of compound. It counts as cell-based. The method, then: HIV cell culture assay—MT-2 cells, 293T cells and the proviral DNA clone of NL4-3 virus were obtained from the NIH AIDS Research and Reference Reagent Program. MT-2 cells were propagated in RPMI 1640 media supplemented with 10% heat inactivated fetal bovine serum (FBS), 100 μg/ml penicillin G and up to 100 units/mL streptomycin. The 293T cells were propagated in DMEM media supplemented with 10% heat inactivated FBS, 100 μg/mL penicillin G and 100 μg/mL streptomycin. A recombinant NL4-3 proviral clone, in which a section of the nef gene was replaced with the Renilla luciferase gene, was used to make the reference virus used in these studies. The recombinant virus was prepared through transfection of the recombinant NL4-3 proviral clone into 293T cells using Transit-293 Transfection Reagent from Mirus Bio LLC (Madison, Wis.). Supernatent was harvested after 2-3 days and the amount of virus present was titered in MT-2 cells using luciferase enzyme activity as a marker by measuring luciferase enzyme activity. Luciferase was quantitated using the EnduRen Live Cell Substrate from Promega (Madison, Wis.). Antiviral activities of compounds toward the recombinant virus were quantified by measuring luciferase activity in MT-2 cells infected for 4-5 days with the recombinant virus in the presence of serial dilutions of the compound.
The 50% effective concentration (EC50) was calculated by using the exponential form of the median effect equation where (Fa)=1/[1+(ED50/drug conc.)^m] (Johnson VA, Byington RT. Infectivity Assay. In Techniques in HIV Research. ed. Aldovini A, Walker BD. 71-76. New York: Stockton Press. 1990). Curve fitting and analysis were performed with ActivityBase XE Runner software version 9.1.0.4 using model 203 (ID Business Solutions, LTD, Guildford, UK).

Data set [2] can be described thus: Compound cytotoxicity, XTT-based colorimetric assay. The class given is cell-based. Conditions: human, uninfected MT2 cells, day 4, XTT. The method, then: Compound cytotoxicity and the corresponding CC50 values were determined using the same protocol as described in the antiviral assay except that uninfected cells were used. Cytotoxicity was assessed on day 4 in uninfected MT2 cells by using a XTT (2,3-bis[2-Methoxy-4-nitro-5-sulfophenyl]-2H-tetrazolium-5-carboxyanilide inner salt)-based colorimetric assay (Sigma-Aldrich, St Louis, Mo.).

Take `Cn1nc(NS(C)(=O)=O)c2c(Cl)ccc(-n3c([C@H](Cc4cc(F)cc(F)c4)NC(=O)Cn4nc(C(F)F)c5c4C(F)(F)[C@@H]4C[C@H]54)nc4cc(-c5ccc(-c6ccccc6)cc5)ccc4c3=O)c21` (atropisomer, axis not shown; (aR)) [Example 101, N-((S)-1-(7-([1,1′-biphenyl]-4-yl)-3-(4-chloro-1-methyl-3-(methylsulfonamido)-1H-indazol-7-yl)-4-oxo-3,4-dihydroquinazolin-2-yl)-2-(3,5-difluorophenyl)ethyl)-2-((3bS,4aR)-3-(difluoromethyl)-5,5-difluoro-3b,4,4a,5-tetrahydro-1H-cyclopropa[3,4]cyclopenta[1,2-c]pyrazol-1-yl)acetamide]: in data set [1], the concentration for a half-maximal effect (EC50) is 62 nM. The compound further returned a CC50 at 4 day in data set [2] of more than 1000 nM.

Take `Cc1n[nH]c(C)c1-c1ccc2c(=O)n(-c3ccc(Cl)c4c(NS(C)(=O)=O)nn(C)c34)c([C@H](Cc3cc(F)cc(F)c3)NC(=O)Cn3nc(C(F)F)c4c3C(F)(F)[C@@H]3C[C@H]43)nc2c1` (atropisomer, axis not shown; (aR)) [Example 89, N-((S)-1-(3-(4-chloro-1-methyl-3-(methylsulfonamido)-1H-indazol-7-yl)-7-(3,5-dimethyl-1H-pyrazol-4-yl)-4-oxo-3,4-dihydroquinazolin-2-yl)-2-(3,5-difluorophenyl)ethyl)-2-((3bS,4aR)-3-(difluoromethyl)-5,5-difluoro-3b,4,4a,5-tetrahydro-1H-cyclopropa[3,4]cyclopenta[1,2-c]pyrazol-1-yl)acetamide]: the EC50 in data set [1] was found to be 3.4 nM. Besides, the CC50 at 4 day in data set [2] was more than 1000 nM.

On to `O=C(Cn1ccc(C2CC2)n1)N[C@@H](Cc1cc(F)cc(F)c1)c1nc2cc(-c3cccc(F)c3F)ccc2c(=O)n1-c1ccc(S(=O)(=O)N2CCOCC2)cc1` [Example 74, (S)-2-(3-cyclopropyl-1H-pyrazol-1-yl)-N-(2-(3,5-difluorophenyl)-1-(7-(2,3-difluorophenyl)-3-(4-(morpholinosulfonyl)phenyl)-4-oxo-3,4-dihydroquinazolin-2-yl)ethyl)acetamide], for which, in data set [1], the half-maximal effective concentration (EC50) turned out to be 16 nM. Besides, the CC50 at 4 day in data set [2] was more than 1000 nM.

On to `COc1ccc(-c2ccc3c(=O)n(-c4ccc(S(=O)(=O)N5CCOCC5)cc4)c([C@H](Cc4cc(F)cc(F)c4)NC(=O)Cn4ccc(C5CC5)n4)nc3c2)cn1` [Example 32, (S)-2-(3-cyclopropyl-1H-pyrazol-1-yl)-N-(2-(3,5-difluorophenyl)-1-(7-(6-methoxypyridin-3-yl)-3-(4-(morpholinosulfonyl)phenyl)-4-oxo-3,4-dihydroquinazolin-2-yl)ethyl)acetamide], for which the EC50 in data set [1] is 5.8 nM. In data set [2], this compound registered a cytotoxic concentration (CC50) at 4 day of more than 1000 nM.

As for `Cn1nc(NS(C)(=O)=O)c2c(Cl)ccc(-n3c([C@H](Cc4cc(F)cc(F)c4)NC(=O)Cn4nc(C(F)F)c5c4C(F)(F)[C@@H]4C[C@H]54)nc4cc(-c5cc(F)ccc5CO)ccc4c3=O)c21` [Example 180, N-((S)-1-(3-(4-chloro-1-methyl-3-(methylsulfonamido)-1H-indazol-7-yl)-7-(5-fluoro-2-(hydroxymethyl)phenyl)-4-oxo-3,4-dihydroquinazolin-2-yl)-2-(3,5-difluorophenyl)ethyl)-2-((3bS,4aR)-3-(difluoromethyl)-5,5-difluoro-3b,4,4a,5-tetrahydro-1H-cyclopropa[3,4]cyclopenta[1,2-c]pyrazol-1-yl)acetamide], the EC50 in data set [1] was found to be 0.2 nM. Besides, in data set [2], the CC50 at 4 day was more than 500 nM.

As for `Cn1nc(NS(C)(=O)=O)c2c(Cl)ccc(-n3c([C@H](Cc4cc(F)cc(F)c4)NC(=O)Cn4nc(C(F)F)c5c4C(F)(F)[C@@H]4C[C@H]54)nc4cc(-c5cccc(C(C)(C)C)c5)ccc4c3=O)c21` (atropisomer, axis not shown; (aR)) [Example 45, N-((S)-1-(7-(3-(tert-butyl)phenyl)-3-(4-chloro-1-methyl-3-(methylsulfonamido)-1H-indazol-7-yl)-4-oxo-3,4-dihydroquinazolin-2-yl)-2-(3,5-difluorophenyl)ethyl)-2-((3bS,4aR)-3-(difluoromethyl)-5,5-difluoro-3b,4,4a,5-tetrahydro-1H-cyclopropa[3,4]cyclopenta[1,2-c]pyrazol-1-yl)acetamide], the EC50 in data set [1] was determined as 4.5 nM. Further, the CC50 at 4 day in data set [2] is more than 1000 nM.

Regarding `CC(C)Oc1ccccc1-c1ccc2c(=O)n(-c3ccc(Cl)c4c(NS(C)(=O)=O)nn(C)c34)c([C@H](Cc3cc(F)cc(F)c3)NC(=O)Cn3nc(C(F)F)c4c3C(F)(F)[C@@H]3C[C@H]43)nc2c1` [Example 181, N-((S)-1-(3-(4-chloro-1-methyl-3-(methylsulfonamido)-1H-indazol-7-yl)-7-(2-isopropoxyphenyl)-4-oxo-3,4-dihydroquinazolin-2-yl)-2-(3,5-difluorophenyl)ethyl)-2-((3bS,4aR)-3-(difluoromethyl)-5,5-difluoro-3b,4,4a,5-tetrahydro-1H-cyclopropa[3,4]cyclopenta[1,2-c]pyrazol-1-yl)acetamide], in data set [1], the EC50 is 0.71 nM. The compound further came in with a CC50 at 4 day in data set [2] of more than 500 nM.

With `O=C(Cn1ccc(C2CC2)n1)N[C@@H](Cc1cc(F)cc(F)c1)c1nc2cc(-c3cc(F)ccc3F)ccc2c(=O)n1-c1ccc(S(=O)(=O)N2CCOCC2)cc1` [Example 19, (S)-2-(3-cyclopropyl-1H-pyrazol-1-yl)-N-(2-(3,5-difluorophenyl)-1-(7-(2,5-difluorophenyl)-3-(4-(morpholinosulfonyl)phenyl)-4-oxo-3,4-dihydroquinazolin-2-yl)ethyl)acetamide], in data set [1], the EC50 was 8.9 nM. In data set [2], this compound showed a CC50 at 4 day of more than 1000 nM.

Take `Cn1nc(NS(C)(=O)=O)c2c(Cl)ccc(-n3c([C@H](Cc4cc(F)cc(F)c4)NC(=O)Cn4nc(C(F)F)c5c4C(F)(F)[C@@H]4C[C@H]54)nc4cc(-c5ccccc5-c5ccccc5)ccc4c3=O)c21` (atropisomer, axis not shown; (aR)) [Example 9, N-((S)-1-(7-([1,1′-biphenyl]-2-yl)-3-(4-chloro-1-methyl-3-(methylsulfonamido)-1H-indazol-7-yl)-4-oxo-3,4-dihydroquinazolin-2-yl)-2-(3,5-difluorophenyl)ethyl)-2-((3bS,4aR)-3-(difluoromethyl)-5,5-difluoro-3b,4,4a,5-tetrahydro-1H-cyclopropa[3,4]cyclopenta[1,2-c]pyrazol-1-yl)acetamide]: the EC50 in data set [1] turned out to be 4.6 nM. In data set [2], this compound came in with a 50% cytotoxic concentration (CC50) at 4 day of more than 1000 nM.

As to `Cn1nc(NS(C)(=O)=O)c2c(Cl)ccc(-n3c([C@H](Cc4cc(F)cc(F)c4)NC(=O)Cn4nc(C(F)F)c5c4C(F)(F)[C@@H]4C[C@H]54)nc4cc(-c5c(Cl)cccc5Cl)ccc4c3=O)c21` (atropisomer, axis not shown; (aR)) [Example 104, N-((S)-1-(3-(4-chloro-1-methyl-3-(methylsulfonamido)-1H-indazol-7-yl)-7-(2,6-dichlorophenyl)-4-oxo-3,4-dihydroquinazolin-2-yl)-2-(3,5-difluorophenyl)ethyl)-2-((3bS,4aR)-3-(difluoromethyl)-5,5-difluoro-3b,4,4a,5-tetrahydro-1H-cyclopropa[3,4]cyclopenta[1,2-c]pyrazol-1-yl)acetamide], the EC50 in data set [1] was 0.68 nM. The same compound showed a cytotoxic concentration (CC50) at 4 day in data set [2] of more than 1000 nM.

By EC50 is commonly meant the concentration at which the effect is half-maximal. One may read the CC50 as the concentration that lowers cell viability or growth by half. Higher therefore signals lower toxicity to the cells.
